According to patent US11007274B2, “Compounds for medicinal applications” (Ausvir Therapeutics Pty LTD, priority 2015, dated 2021):
pEC50: −log10 of the molar value. Converted amounts (≈) assume the structure as drawn. “And” between values parts separate entries of the source, which are not always exact repeats. Equal entries are not always repeated. Where two headings read alike, the source gives them in different places.

Legend:
[1] = tested on: Florida/4/2006; assay: microbe, parasite or virus in culture; format: cell-based; conditions: Table 7
[2] = tested on: Perth/16/2009; assay: microbe, parasite or virus in culture; format: cell-based; conditions: Table 7
[3] = tested on: Duck/MN/1525/81; format: cell-based; conditions: Table 7
[4] = tested on: CA/07/2009; assay: microbe, parasite or virus in culture; format: cell-based; conditions: Table 7
[5] = tested on: A/PR/8 virus H1N1; assay: Viral Plaque Reduction Assay (Table 23); format: cell-based, influenza virus; conditions: Table 23, plaque reduction, read-out: EC50
[6] = tested on: A/Solomon Island/3/06; assay: microbe, parasite or virus in culture; format: cell-based; conditions: unidentified influenza virus, read-out: EC50 A/Solomon Island/3/06
[7] = tested on: A/Mississippi/03/01H274Y; format: cell-based, influenza virus
[8] = tested on: A/Sydney/5/97; assay: microbe, parasite or virus in culture; format: cell-based; conditions: unidentified influenza virus, read-out: EC50 A/Sydney/5/97
[9] = tested on: A/Victoria/503/06; assay: microbe, parasite or virus in culture; format: cell-based; conditions: unidentified influenza virus, read-out: EC50 A/Victoria/503/06
[10] = tested on: A/Perth/261/2009; assay: microbe, parasite or virus in culture; format: cell-based; conditions: unidentified influenza virus, read-out: EC50 A/Perth/261/2009
[11] = tested on: A/Victoria/170/2012; assay: microbe, parasite or virus in culture; format: cell-based; conditions: unidentified influenza virus, read-out: EC50 A/Victoria/170/2012
[12] = tested on: A/Townsville/74/2011; assay: microbe, parasite or virus in culture; format: cell-based; conditions: unidentified influenza virus, read-out: EC50 A/Townsville/74/2011
[13] = tested on: B/Townsville/2/2011; assay: microbe, parasite or virus in culture; format: cell-based; conditions: unidentified influenza virus, read-out: EC50 B/Townsville/2/2011
[14] = tested on: Influenza A virus H3N2, Perth/16/2009; assay: microbe, parasite or virus in culture; format: cell-based; conditions: read-out: EC90
[15] = tested on: Influenza A virus H5N1, Duck/MN/1525/81; assay: microbe, parasite or virus in culture; format: cell-based
[16] = tested on: Influenza B virus, B/Florida/4/2006; assay: microbe, parasite or virus in culture; format: cell-based
[17] = in vitro
[18] = tested on: Influenza A virus H1N1, California/07/2009; assay: microbe, parasite or virus in culture; format: cell-based; conditions: read-out: EC90
[19] = tested on: Influenza B virus, B/Florida/4/2006; assay: microbe, parasite or virus in culture; format: cell-based; conditions: Table 19, […], B/Florida/4/2006, read-out: EC50
[20] = tested on: Influenza A virus H1N1, California/07/2009; assay: microbe, parasite or virus in culture; format: cell-based
[21] = tested on: Influenza A virus H3N2, Perth/16/2009; assay: microbe, parasite or virus in culture; format: cell-based
[22] = tested on: CA/07/2009 virus H1N1; assay: Viral Plaque Reduction Assay (Table 22); format: cell-based; conditions: Influenza A virus, Table 22, plaque reduction, read-out: EC50
[23] = tested on: PR8 influenza virus; assay: Viral clearance rates in the lung and nasal turbinates, weight loss (Table 6); format: in vivo, mice

With `CC(=O)N[C@H]1[C@H]([C@H](OC(=O)NCCCCCNC(=O)[C@@H]2C[C@H](C(=O)NCCCCCNC(=O)O[C@@H]([C@@H]3OC(C(=O)O)=C[C@H](N=C(N)N)[C@H]3NC(C)=O)[C@H](O)CO)C[C@H](C(=O)N[C@@H](CC(=O)O)C(=O)O)C2)[C@H](O)CO)OC(C(=O)O)=C[C@@H]1N=C(N)N` [MD242, CHTCA(Zp)2-L-Asp] the pEC50 [1] was 9.24, the “EC50 Florida/4/2006” value [1] was 0.00071 mg/L (≈ 0.000584 µM) and the pEC50 [2] was 8.46. The “EC50 Perth/16/2009” value [2] was 0.0042 mg/L (≈ 0.00345 µM), the pEC50 [3] was 9.15 and the pEC50 [4] was 8.18. The “EC50 CA/07/2009” value ([4]; MDCK cell line) was 0.008 mg/L (≈ 0.00658 µM).
In the case of `CC(=O)N[C@H]1[C@H]([C@H](OC(=O)NCCCCCCCCNC(=O)CC(CC(=O)N[C@H](CS(=O)(=O)O)C(=O)N[C@H](CS(=O)(=O)O)C(=O)N[C@H](CS(=O)(=O)O)C(=O)O)C(=O)NCCCCCCCCNC(=O)O[C@@H]([C@@H]2OC(C(=O)O)=C[C@H](N=C(N)N)[C@H]2NC(C)=O)[C@H](O)CO)[C@H](O)CO)OC(C(=O)O)=C[C@@H]1N=C(N)N` (stereo partly drawn) [MD343, PK2 TCA(Z0)2-[D-Cya]3-OH], the pEC50 [5] was 8.90.
In the case of `CC(=O)N[C@H]1C([C@H](OC(=O)NCCCCCCCCCNC(=O)[C@@H]2CC(C(=O)NCCCCCCNC(=O)O[C@H](C(O)CO)C3OC(C(=O)O)=C[C@H](NC(=N)N)[C@H]3NC(C)=O)C[C@H](C(=O)N[C@H](CC(=O)NC(CS(=O)(=O)O)C(=O)O)C(=O)N[C@H](CC(=O)NC(CS(=O)(=O)O)C(=O)O)C(=O)N[C@H](CC(=O)NC(CS(=O)(=O)O)C(=O)O)C(=O)O)C2)C(O)CO)OC(C(=O)O)=C[C@@H]1NC(=N)N` (stereo partly drawn) [MD348, CHTCA(Z0)2-[D-Asp(D-Cyst)-D-Asp(D-Cyst)-D-Asp(D-Cyst)]-OH], the pEC50 [6] was 10.80, the pEC50 [7] was 9.57 and the pEC50 [8] was 8.90. The pEC50 ([5]; Influenza A virus) was 8.72, the pEC50 [9] was 8.35 and the pEC50 [10] was 9.46. The pEC50 [11] was 9.08, the pEC50 [12] was 10.22 and the pEC50 [13] was 9.55.
With `NC(=O)c1ncn([C@@H]2O[C@H](CO)[C@@H](O)[C@H]2O)n1` [Ribavirin, reference compound] the EC90 [14] was 4.4 mg/L (≈ 18 µM), the EC90 [15] was 2.3 mg/L (≈ 9.42 µM) and the EC50 [16] was 9.5 mg/L (≈ 38.9 µM). It also gave a CC50 ([17]; CC50, Table 9, line Neutral Red (Cytopathic effect/Toxicity)) of over 1000 mg/L, a CC50 ([17]; CC50, Table 10, line Neutral Red (Cytopathic effect/Toxicity)) of over 1000 mg/L and a CC50 ([17]; CC50, Table 11, line Neutral Red (Cytopathic effect/Toxicity)) of over 320 mg/L. The CC50 ([17]; CC50, Table 12, line Neutral Red (Cytopathic effect/Toxicity)) was over 320 mg/L, the CC50 ([17]; CC50, Table 13, line Neutral Red (Cytopathic effect/Toxicity)) was over 320 mg/L and the CC50 ([17]; CC50, Table 14, line Neutral Red (Cytopathic effect/Toxicity)) was over 320 mg/L. For the same compound, the CC50 ([17]; CC50, Table 15, line Neutral Red (Cytopathic effect/Toxicity)) was over 320 mg/L, the CC50 ([17]; CC50, Table 16, line Neutral Red (Cytopathic effect/Toxicity)) was over 320 mg/L and the CC50 ([17]; CC50, Table 18, line Neutral Red (Cytopathic effect/Toxicity)) was over 320 mg/L. For the same compound, the CC50 ([17]; CC50, Table 19, Neutral Red (Cytopathic effect/Toxicity) rows) was over 320 mg/L, the EC90 [18] was 2.3 mg/L (≈ 9.42 µM) and the EC50 [19] was 10 mg/L (≈ 40.9 µM). For the same compound, the EC50 [20] was 2.5 mg/L (≈ 10.2 µM) and the EC50 [21] was 5 mg/L (≈ 20.5 µM).
In the case of `CC(=O)N[C@H]1[C@H]([C@H](O)[C@H](O)CO)OC(C(=O)O)=C[C@@H]1N=C(N)N` [Zanamivir, reference compound], the pEC50 [7] was under 7.18, the pEC50 ([5]; Influenza A virus) was 4.99 and the EC50 [22] was 0.00197 µg/mL and 5.93 nM. For the same compound, the “lung viral titre, Group mean titres” value ([23]; Day 1) was 2.60 log10, the “lung viral titre, Group mean titres” value ([23]; Day 3) was 4.28 log10 and the “lung viral titre, Group mean titres” value ([23]; Day 5) was 4.85 log10. For the same compound, the “lung viral titre, Group mean titres” value ([23]; Day 7) was 4.72 log10, the “weight loss compared with PBS” value ([23]; days 3, 4 and 5, Bonferroni post-test p<0.001) was “significantly different from PBS” and the “lung viral titre, Individual titres” value ([23]; mouse, in vivo) was 4.44 log10 and 4.66 log10 and 4.97 log10 (2×) and 4.19 log10 and 3.16 log10 and 4.84 log10 and 3.00 log10 and 5.77 log10 and 5.66 log10.
